Assay results published in patent publication US20200046835A1, “Systems, Methods, and Compositions For Cross-Linking Treatments of an Eye” (Avedro, Inc., priority 2014, published 2020).
Blank lines part the entries; values can stand above or below the compound they belong to.

Experiments:
corneal collagen [1] = test: Papain digest fluorescence of pig corneal flaps (collagen cross-linking); details: for fluorescence of the corneal samples after digestion with papain (excitation 360 nm), compared to controls not exposed to UV: phosphate buffer, UV 365 nm, 30 mW/cm^2, pulsed 1 s on:1 s off, 8 min, oxygen; for fluorescence (relative to untreated controls) recorded at 450 nm: FeSO4 0.5 mM added to 0.1% riboflavin
Experimental: Corneal flaps were soaked in either distilled water or diluted H2O2 (1%) for 20 minutes. Flaps soaked in H2O2 were either rinsed twice with distilled water or removed from H2O2 and placed in 0.1% FeSO4 solution in distilled water for an additional 20 minute soak followed by a 2× rinse with distilled water. Flaps were dried in a vacuum until the weight change became less than 10% (Rotary vane vacuum pump RV3 A652-01-903, BOC Edwards, West Sussex, UK). Each flap was digested for 2.5 hours at 65° C. with 2.5 units/ml of papain (from Papaya latex, Sigma) in 1 ml of papain buffer [EBBS (pH 7.0-7.2), 2 mM L-cysteine and 2 mM EDTA]. Papain digests were centrifuged for 5 seconds at 2200×G (Mini centrifuge 05-090-100, Fisher Scientific), diluted 0.5 times with BBBS and fluorescence of the solutions was measured with excitation of λex=360 nm in a QM-40 Spectrofluorometer (Photon Technology Int., London, Ontario, Canada). The fluorescence of the papain buffer was taken into account by measuring fluorescence in the absence of tissue and subtracting this value from the fluorescence of the samples. […]
(§1) Pig eyes were shipped overnight on ice from an abattoir (SiouxPreme, Sioux City, Iowa), rinsed in saline. Eyes were cleaned and epithelium was removed. […] If specified, eyes were placed in a beaker with a light oxygen stream for 2 minutes in the incubation chamber prior to irradiation. Corneas were pan-corneally irradiated with a top hat beam (3% root mean square) for the chosen time (4 or 8 minutes) with 365-nm light source (UV LED NCSU033B[T]; Nichia Co., Tokushima, Japan) at the chosen irradiance (30 mW/cm^2, pulsed or non-pulsed) which was measured with a power sensor (model PD-300-UV; Ophir, Inc., Jerusalem, Israel) at the corneal surface. Corneal flaps (approximately 200 μm thick) were excised from the eyes with aid of Intralase femtosecond laser (Abbot Medical Optics, Santa Ana, Calif.). The average thickness of the corneal flaps was calculated as a difference between the measurements before and after the excision from the eyes with an ultrasonic Pachymeter (DGH Technology, Exton, Pa.). The flaps were placed into a biaxial extensometer (CellScale Biotester 5000, Waterloo, ON), using biorake attachments with 5 tines spanning a width of 3 mm. Each sample was stretched at a constant rate of 4 μm/s in saline at 37° C. until sample failure. The flaps were washed with distilled water 2 times, dried with filter paper, washed with dH2O two times, and then dried in a vacuum until the weight change became less than 10% (Rotary vane vacuum pump RV3 A652-01-903, BOC Edwards, West Sussex, UK). Each flap was digested for 2.5 hours at 65° C. with 2.5 units/ml of papain (from Papaya latex, Sigma) in 1 ml of papain buffer [BBBS (pH 7.0-7.2), 2 mM L-cysteine and 2 mM EDTA]. Papain digests were centrifuged for 5 seconds at 2200×G (Mini centrifuge 05-090-100, Fisher Scientific), diluted 0.5 times with 1× BBBS and fluorescence of the solutions was measured with excitation of λex=360 nm in a QM-40 Spectrofluorometer (Photon Technology Int., London, Ontario, Canada). The fluorescence of the papain buffer was taken into account by measuring fluorescence in the absence of tissue and subtracting this value from the fluorescence of the samples.
(§2) Oxygen was supplied continuously to the beaker during the time of exposure.
as §2

corneal collagen [2] = test: Biaxial extensometry (tensiometry) of pig corneal flaps; details: for stiffening of corneal sample (displacement vs. force curves), compared to the unexposed controls: phosphate buffer, UV 365 nm, 30 mW/cm^2, pulsed 1 s on:1 s off, 8 min, oxygen; for corneal stiffness (displacement-force diagrams): 1% solution in dH2O
Experimental: as §1, §2
Oxygen was supplied continuously to the beaker during the time of exposure. Corneal flaps were cut at approximately 200 μm.
Pig eyes were shipped overnight on ice from an abattoir (SiouxPreme, Sioux City, Iowa), rinsed in saline. Eyes were cleaned and epithelium was removed. […] Corneas were pan-corneally irradiated with a top hat beam (3% root mean square) for 4 minutes with 365-nm light source (UV LED NCSU033B[T]; Nichia Co., Tokushima, Japan) at irradiance 30 mW/cm^2, which was measured with a power sensor (model PD-300-UV; Ophir, Inc., Jerusalem, Israel) at the corneal surface. Corneal flaps (approximately 200 μm thick) were excised from the eyes with aid of Intralase femtosecond laser (Abbott Medical Optics, Santa Ana, Calif.). The average thickness of the corneal flaps was calculated as a difference between the measurements before and after the excision from the eyes with an ultrasonic Pachymeter (DGH Technology, Exton, Pa.). The flaps were then placed into a biaxial extensometer (CellScale Biotester 5000, Waterloo, ON), using biorake attachments with 5 tines spanning a width of 3 mm. Each sample was stretched at a constant rate of 4 μm/s in saline at 37° C. until sample failure. The flaps were washed with distilled water, dried in a vacuum until the weight change became less than 10% (Rotary vane vacuum pump RV3 A652-01-903, BOC Edwards, West Sussex, UK). Each flap was digested for 2.5 h at 65° C. with 2.5 units/ml of papain (from Papaya latex, Sigma) in 1 ml of papain buffer [EBBS (pH 7.0-7.2), 2 mM L-cysteine and 2 mM EDTA].

human serum albumin = human serum albumin (Homo sapiens, UniProt P02768); details: irradiated in the presence of human serum albumin; cited from earlier work
corneal collagen [3] = test: Papain digest fluorescence of pig corneal flaps (collagen cross-linking); details: 0.1% in BBBS, de-oxygenated with argon, irradiated 4 min at 30 mW/cm^2 in CO2 atmosphere
[4] = 0.4% in PBS, UVA 30 mW/cm2, 4 min CW or 8 min pulsed with O2

human serum albumin, sequence (P02768 25-609): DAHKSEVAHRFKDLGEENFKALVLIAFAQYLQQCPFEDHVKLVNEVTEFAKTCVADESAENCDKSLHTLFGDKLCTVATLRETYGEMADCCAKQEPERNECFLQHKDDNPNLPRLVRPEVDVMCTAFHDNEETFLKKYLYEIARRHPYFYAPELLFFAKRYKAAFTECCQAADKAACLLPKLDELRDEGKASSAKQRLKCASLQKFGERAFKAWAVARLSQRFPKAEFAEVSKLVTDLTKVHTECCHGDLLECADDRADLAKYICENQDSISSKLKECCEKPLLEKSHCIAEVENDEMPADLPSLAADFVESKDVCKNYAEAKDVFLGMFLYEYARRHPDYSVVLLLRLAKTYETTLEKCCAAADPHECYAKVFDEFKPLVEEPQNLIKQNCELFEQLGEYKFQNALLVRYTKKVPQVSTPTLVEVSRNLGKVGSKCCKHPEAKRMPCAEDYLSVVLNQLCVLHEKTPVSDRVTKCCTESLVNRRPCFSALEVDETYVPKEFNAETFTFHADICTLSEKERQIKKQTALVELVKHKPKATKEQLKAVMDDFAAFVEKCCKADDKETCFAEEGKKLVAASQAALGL

average force vs. displacement measured by tensiometry (corneal collagen [2]; CW UVA 30 mW/cm^2, 4 min, relative to controls): higher than the control group | stiffening of corneal sample (displacement vs. force curves), compared to the unexposed controls (corneal collagen [2]): significant stiffening
SMILES: Cc1cc2nc3c(=O)[nH]c(=O)nc-3n(C[C@H](O)[C@H](O)[C@H](O)CO)c2cc1C [0.1% riboflavin, riboflavin]
fluorescence of the corneal samples after digestion with papain (excitation 360 nm), compared to controls not exposed to UV (corneal collagen [1]): increases

corneal stiffness (displacement-force diagrams) (corneal collagen [2]; with UV light 365 nm, 30 mW for 4 min): increase | corneal stiffness (displacement-force diagrams) (corneal collagen [2]; without UV light): does not cross-link corneal flaps
SMILES: CC(=O)C(C)=O [2,3-butanedione]
fluorescence output (relative to the untreated controls, Fo) recorded at 450 nm (corneal collagen [1]; 1% solution in dH2O, with UV light 365 nm, 30 mW for 4 min): increase | fluorescence (relative to the untreated controls, Fo) recorded at 450 nm (corneal collagen [1]; 1% solution in dH2O, without UV light): does not cross-link corneal flaps

stiffening of corneal sample (displacement vs. force curves), compared to the unexposed controls (corneal collagen [2]): significant stiffening
SMILES: Nc1nc2ncc(CNc3ccc(C(=O)N[C@@H](CCC(=O)O)C(=O)O)cc3)nc2c(=O)[nH]1 [FA, Folic acid]
fluorescence of the corneal samples after digestion with papain (excitation 360 nm), compared to controls not exposed to UV (corneal collagen [1]): increases

SMILES: O=S(=O)([O-])[O-].[Fe+2] [FeSO4, Iron(II) Sulfate]
fluorescence (relative to untreated controls) recorded at 450 nm (corneal collagen [1]; CW UVA 30 mW/cm^2, 4 min): increase in fluorescence | fluorescence (relative to untreated controls) recorded at 450 nm (corneal collagen [1]; PW+O2, UVA 30 mW/cm^2, 8 min (1 s on:1 s off)): increase in fluorescence | average force vs. displacement measured by tensiometry (biaxial tension) (corneal collagen [2]; PW+O2, UVA 30 mW/cm^2, 8 min (1 s on:1 s off), versus 0.1% riboflavin): increase in biaxial tension

SMILES: OO [H2O2, hydrogen peroxide]
fluorescence counts of papain digested corneal flaps (cross-linking) (corneal collagen [1]; 1% H2O2 soak 20 min, with or without following 0.1% Iron(II) soak 20 min, no UV): not

SMILES: Cc1c(C(=O)NCCO)[n+]([O-])c2ccccc2[n+]1[O-] [Olaquindox, N-(2-hydroxyethyl)-3-methyl-2-quinoxalinecarboxamide 1,4-dioxide]
time to complete disappearance on irradiation (human serum albumin): ≤ 20 s | relative fluorescence recorded at 450 nm of the cross-linked flaps (corneal collagen [1]; [4]): acquired fluorescence at 450 nm | stiffness by biaxial extensiometry of 200 μm thick corneal flaps (corneal collagen [2]; [4]): became stiffer

SMILES: Cc1cc2nc(C(=O)[O-])c(=O)n(C[C@H](O)[C@H](O)[C@H](O)CO)c2cc1C.O.[Na+] [sodium salt of 1,2-Dihydro-6,7-dimethyl-2-keto-1-D-ribityl-3-quinoxalinecarboxylic acid monohydrate]
fluorescence of the digested corneal flaps (excitation 360 nm), compared with riboflavin (corneal collagen [3]): higher than the fluorescence of the corneal flaps cross-linked with riboflavin | fluorescence of the digested corneas in the area 450 nm (corneal collagen [1]; 0.1% in BBBS, no epithelium, 20 min soak, 30 mW/cm^2 for 4 min continuous UVA): elevated fluorescence
